In the NIST ThermoML archive (doi:10.1021/je201140q):

Tests used:
[1] = for surface tension liquid-gas: 303.15 K, Maximal bubble pressure; for vapor or sublimation pressure / Normal boiling temperature: Ebulliometric method (Recirculating still)
[2] = refractive index (Na D-line) (dimensionless); conditions: 298.15 K; 101.33 kPa; Liquid; Standard Abbe refractometry
[3] = xn = mol fraction of the nth substance listed; conditions: for mass density: 298.15 K, 101.3 kPa, Liquid, Vibrating tube method; for surface tension liquid-gas: 303.15 K, Maximal bubble pressure

CCO [ethanol]
Conditions	refractive index	surface tension liquid-gas [mN/m]
[1]	–	21.7
[2]	1.36068	–

[1], Liquid
Conditions	vapor or sublimation pressure [kPa]
334.57 K	50
344.02 K	75
349.56 K	94

Conditions	Normal boiling temperature [°C]
[1], Liquid	78.30

C1CCOCC1 [tetrahydropyran]
Conditions	mass density [kg/m3]
[1], 298.15 K, 101.3 kPa, Liquid, Vibrating tube method	879.03

Conditions	refractive index	surface tension liquid-gas [mN/m]
[1]	–	27.1
[2]	1.42	–

[1], Liquid
Conditions	vapor or sublimation pressure [kPa]
312.59 K	18.01
319.62 K	24.01
325.36 K	30.01
331.7 K	38.01
336.4 K	45.01
339.33 K	50
339.98 K	51.01
344.26 K	59.01
347.64 K	66.01
350.74 K	73.01
351.53 K	75
353.61 K	80.01
356.29 K	87.01
358.81 K	94.01
358.85 K	94
361.55 K	102.11

Conditions	Normal boiling temperature [°C]
[1], Liquid	88.21

CCO [ethanol] + C1CCOCC1
[3], x1 = 1
Conditions	mass density [kg/m3]	surface tension liquid-gas [mN/m]
–	785.11	21.7

C1CCOCC1 [tetrahydropyran] + CCO
[3]
Conditions	mass density [kg/m3]	surface tension liquid-gas [mN/m]
x2 = 0	879.03	27.1
x2 = 0.03	877.14	–
x2 = 0.068	–	26.91
x2 = 0.115	871.86	–
x2 = 0.122	–	26.76
x2 = 0.193	866.85	–
x2 = 0.223	–	26.5
x2 = 0.299	859.54	–
x2 = 0.323	–	25.98
x2 = 0.42	–	25.34
x2 = 0.426	849.89	–
x2 = 0.496	844.01	–
x2 = 0.52	–	24.9
x2 = 0.599	834.65	–
x2 = 0.604	–	24.35
x2 = 0.622	–	24.24
x2 = 0.657	–	24.07
x2 = 0.707	–	23.81
x2 = 0.716	822.74	–
x2 = 0.722	–	23.64
x2 = 0.799	813.13	–
x2 = 0.821	–	23.01
x2 = 0.91	798.6	–
x2 = 0.918	–	22.42
x2 = 0.959	791.41	–
x2 = 0.963	–	22
